Measured values reported in patent US20190373892A1, “FORMALDEHYDE-FREE PRESERVATIVES FOR HIGHLY SUSCEPTIBLE PRODUCTS” (Troy Corporation, priority 2018, published 2019).
In brackets after ≈: the same amount, converted by molar mass.

Columns and labels:
[1] = tested on: Pseudomonas aeruginosa (ATCC #10145); assay: Minimum Inhibitory Concentration (MIC) testing by microbroth dilution; assay type: cell-based; settings: ATCC10145, 72 h, 1x Nutrient Broth, 35° C., 3 days, no growth via turbidity
[2] = tested on: Alcaligenes faecalis (ATCC #25094), Enterobacter aerogenes (ATCC #13048), Escherichia coli (ATCC #11229), Pseudomonas aeruginosa (ATCC #10145) and Pseudomonas …; assay: Bacterial challenge test in laboratory-made wallboard joint compound; assay type: cell-based; settings: 200 ppm total active
Excerpt: Because this bacterial challenge test is intended to test the performance of in-can preservatives during long-term storage, only the last day of each seven-day challenge is considered important. The test sample was inoculated with bacteria on the first day of each seven-day challenge.
Bacteria were inoculated into the laboratory-made test wallboard joint formulations at approximately 10^6 CFU/g at time equals zero on the first day of each seven-day cycle. Viability of the bacteria was monitored semi-quantitatively through streak analysis 1, 2, and 7 days after inoculation. This procedure was performed twice for a total of two to four seven-day cycles. A rating of “4” indicates heavy growth, while a rating of “0” indicates undetectable growth, defined as <10 CFU/g of material. Samples free of detectable growth after 7 days are considered to be well-preserved.
For comparison, a blank, unpreserved laboratory-made wallboard joint composition is shown, as well as a laboratory-made wallboard joint composition that is preserved with a commercial formaldehyde-producing preservative, comprising 78 wt % of 2,2′,2″-(hexahydro-1,3,5-triazine-1,3,5-triyl)-triethanol (HHT). The various preservatives were added to the laboratory-made wallboard joint compound at the levels shown, in ppm by weight.

## O=c1[nH]sc2ccccc12 [BIT, 1,2-benzisothiazol-3(2H)-one]
[1]
  MIC: 30.8 µg/mL (≈ 204 µM)
[2]
  Protection of wallboard joint compound in words: neither 200 ppm BIT nor Ziram alone being capable of protecting the wallboard joint compound
